Tested on: HEK293T cells carrying the ATF4 luciferase reporter
Assay: ATF4-Luc assay, in vitro model of Vanishing Cell White Matter Disease (VWMD)
Format: cell-based
Details: Homo sapiens, HEK-293T, 1 μg/mL tunicamycin, 7 hours, One Glo luminescence
In short: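 Compound at 200 nM and tunicamycin at 1 μg/mL were given together for 7 h to HEK293T cells stably transduced with an ATF4 5′-UTR-driven firefly luciferase reporter. Read-out by luminescence, reported as EC50.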

**Q.** `Cn1nc(C(F)F)cc1C(=O)NC12CC(NC(=O)COc3ccc(Cl)c(F)c3)(C1)C2` [Compound 365, N-{3-[2-(4-chloro-3-fluorophenoxy)acetamido]bicyclo[1.1.1]pentan-1-yl}-3-(difluoromethyl)-1-methyl-1H-pyrazole-5-carboxamide] was tested. Which EC50 did it give?
**A.** The EC50 was < 0.05 µM.

**Q.** With `O=C(COc1ccc(Cl)c(F)c1)NC12CCC(NC(=O)c3cn[nH]c3)(CC1)C(O)C2` (stereo not shown) [Compound 214, N-{4-[2-(4-chloro-3-fluorophenoxy)acetamido]-2-hydroxybicyclo[2.2.2]octan-1-yl}-1H-pyrazole-4-carboxamide] as the compound, how does the EC50 read?
**A.** Its EC50 is > 2 µM.

**Q.** With `O=C(COc1ccc(Cl)c(F)c1)NC12CC(NC(=O)c3cn4ccsc4n3)(C1)C2` [Compound 799, N-{3-[2-(4-chloro-3-fluorophenoxy)acetamido]bicyclo[1.1.1]pentan-1-yl}imidazo[2,1-b][1,3]thiazole-6-carboxamide] as the compound, how does the EC50 read?
**A.** Its EC50 is > 2 µM.

**Q.** Which EC50 does the source give for `CC(C)c1ccc(C(=O)NC23CC(NC(=O)COc4ccc(Cl)c(Cl)c4)(C2)C3)cn1` [Compound 643, N-{3-[2-(3,4-dichlorophenoxy)acetamido]bicyclo[1.1.1]pentan-1-yl}-6-(propan-2-yl)pyridine-3-carboxamide] here?
**A.** The EC50 was 0.25 to 1 µM.

**Q.** With `O=C(COc1ccc(Cl)cc1)NC12CC(Nc3cc(-c4ccc(Cl)cc4)on3)(C1)C2` [Compound 265, 2-(4-chlorophenoxy)-N-(3-{[5-(4-chlorophenyl)-1,2-oxazol-3-yl]amino}bicyclo[1.1.1]pentan-1-yl)acetamide] as the compound, how does the EC50 read?
**A.** The EC50 was < 0.05 µM.

**Q.** Which EC50 does the source give for `O=C(COc1ccc(Cl)c(F)c1)NC12CC(NC(=O)c3cnc(C4CCOCC4)o3)(C1)C2` [Compound 139, N-{3-[2-(4-chloro-3-fluorophenoxy)acetamido]bicyclo[1.1.1]pentan-1-yl}-2-(oxan-4-yl)-1,3-oxazole-5-carboxamide] here?
**A.** Its EC50 is 0.25 to 1 µM.

**Q.** With `N#Cc1ccnc(C(=O)NC23CC(NC(=O)COc4ccc(Cl)c(F)c4)(C2)C3)c1` [Compound 182, N-{3-[2-(4-chloro-3-fluorophenoxy)acetamido]bicyclo[1.1.1]pentan-1-yl}-4-cyanopyridine-2-carboxamide] as the compound, how does the EC50 read?
**A.** The EC50 was 0.05 to 0.25 µM.

**Q.** For `Cc1cnc(C(=O)NC23CCC(NC(=O)COc4ccc(Cl)c(Cl)c4)(C2)C3)cn1` [Compound 142, N-{4-[2-(3,4-dichlorophenoxy)acetamido]bicyclo[2.1.1]hexan-1-yl}-5-methylpyrazine-2-carboxamide], which EC50 is on record?
**A.** The EC50 was 0.25 to 1 µM.

**Q.** With `O=C(COCc1cccc(Cl)c1)NC12CC(NC(=O)c3cnc(C(F)F)cn3)(C1)C2` [Compound 947, N-(3-{2-[(3-chlorophenyl)methoxy]acetamido}bicyclo[1.1.1]pentan-1-yl)-5-(difluoromethyl)pyrazine-2-carboxamide] as the compound, how does the EC50 read?
**A.** The EC50 was > 2 µM.

**Q.** How did the EC50 turn out when `O=C(COc1ccc(Cl)c(F)c1)NC12CCC(NC(=O)c3cc(C(F)F)cs3)(CC1)C[C@@H]2O` [Compound 665, N-{(3S)-4-[2-(4-chloro-3-fluorophenoxy)acetamido]-3-hydroxybicyclo[2.2.2]octan-1-yl}-4-(difluoromethyl)thiophene-2-carboxamide] was run?
**A.** Its EC50 is < 0.05 µM.

**Q.** `NC(=O)c1ccncc1C(=O)NC12CC(NC(=O)COc3ccc(Cl)c(F)c3)(C1)C2` [Compound 826, N^3-{3-[2-(4-chloro-3-fluorophenoxy)acetamido]bicyclo[1.1.1]pentan-1-yl}pyridine-3,4-dicarboxamide] was tested. Which EC50 did it give?
**A.** The EC50 was 1 to 2 µM.

**Q.** With `Cc1ccc(C(=O)NC23CCC(NC(=O)COc4ccc(Cl)c(F)c4)(CC2)CC3O)cn1` (stereo not shown) [Compound 228, N-{4-[2-(4-chloro-3-fluorophenoxy)acetamido]-2-hydroxybicyclo[2.2.2]octan-1-yl}-6-methylpyridine-3-carboxamide] as the compound, how does the EC50 read?
**A.** The EC50 was > 2 µM.

**Q.** For `O=C(COc1ccc(Cl)c(F)c1)NC12CCC(NC(=O)c3ccccc3)(CC1)[C@@H](O)C2` [Compound 484, N-{(2S)-4-[2-(4-chloro-3-fluorophenoxy)acetamido]-2-hydroxybicyclo[2.2.2]octan-1-yl}benzamide], which EC50 is on record?
**A.** The EC50 was 0.05 to 0.25 µM.
